Measured values as given in the NIST ThermoML archive (doi:10.1021/je800460a).

Assay: wn = mass fraction of the nth substance listed
Conditions: 101 kPa, Liquid

NC(CO)(CO)CO [2-amino-2-(hydroxymethyl)-1,3-propanediol] + O
Conditions	mass density, w1 = 0.0217 [kg/m3]	mass density, w1 = 0.051 [kg/m3]	mass density, w1 = 0.103 [kg/m3]	mass density, w1 = 0.158 [kg/m3]	mass density, w1 = 0.217 [kg/m3]	viscosity, w1 = 0.0217 [mPa·s]	viscosity, w1 = 0.051 [mPa·s]	viscosity, w1 = 0.103 [mPa·s]	viscosity, w1 = 0.158 [mPa·s]	viscosity, w1 = 0.217 [mPa·s]
298 K	1001.3	1009	1021.6	1033.6	1046.5	0.913	0.995	1.148	1.353	1.605
303 K	999.6	1007.4	1019.2	1031.8	1044.2	0.874	0.94	1.059	1.223	1.449
313 K	994.9	1002.8	1014.6	1026.8	1038.9	0.733	0.799	0.884	1.008	1.172
323 K	988.1	996	1008.2	1019.9	1032.7	0.6	0.65	0.711	0.808	0.93
